Results taken from patent US20230303572A1, “18-MC SALT FORMS” (Mind Medicine, Inc., priority 2022, published 2023).
Structures can show the parent of a compound that is named as a salt. Marks after values point to notes of the source that are not given here.

Key:
Type in all cases: physicochemical
[1] = Heating experiments and VT-XRPD (N2 drying, heating, cooling back): form change; settings: for form change after N2 drying (VT-XRPD): N2-drying for 20 min at 30° C.; for Form change after treatment: Heat to 165~170° C. under N2, XRPD form; for Form after heating: solid form by XRPD after heating, cells marked *, # have footnotes that are not shown
Source text: (§1) For XRPD analysis, a PANalytical Empyrean and X′ Pert3 X-ray powder diffract meter was used.

[2] = Physical form stability on storage at RT, air drying or exposure to ambient conditions (XRPD); settings: for Form after treatment: RT storage, metastable forms
Source text: as §1

[3] = Approximate solubility estimated by stepwise solvent addition (RT and 50° C.)
Experimental: Approximate solubility values of sulfate Type A (824511-04-A) were estimated in 10 solvents to guide the solvent selection in the polymorph screening, with results summarized in TABLE 16B.
Approximate solubility of oxalate Type B (824511-04-C) was estimated in 10 solvents to guide the solvent selection in polymorph screening of oxalate, and the results were summarized in TABLE 19C.
Procedure: weigh ~2 mg solids into each 3-mL glass vial, add in corresponding solvent stepwise and sonicate or oscillate to see if solids dissolved completely. Stop adding solvent till the solids dissolves or total volume reaches 1.0 mL. Calculate the approximate solubility based on solvent volume.
The approximate solubility of mesylate Type A (824511-23-B) was estimated in 10 solvents to guide the solvent selection in polymorph screening of the mesylate, with results summarized in TABLE 22C.
Approximate solubility of HBr salt Type A (824511-29-B) was estimated in 10 solvents to guide the solvent selection in polymorph screening of HBr salt, with data summarized in TABLE 25B.
Approximate solubility of tosylate Type B (824511-23-A-0628) was estimated in 40 solvents to guide the solvent selection in polymorph screening of tosylate, with data summarized in TABLE 27B.
Approximate solubility of besylate Type B (824511-44-C2) was estimated in 38 solvents to guide the solvent selection in polymorph screening of besylate, with results shown in TABLE 31.

[4] = heating to 80° C. and cooling back to RT
[5] = after air drying or RT storage, duration not stated
[6] = approximate solubility in EtOAc at RT
[7] = approximate solubility in H2O at RT
[8] = approximate solubility in MeOH at RT
[9] = approximate solubility in n-Heptane at RT
[10] = approximate solubility in CHCl3 at RT
[11] = approximate solubility in THF at RT

COCC[C@H]1CC2CN3CCc4c([nH]c5ccccc45)[C@](C(=O)OC)(C2)[C@H]13 [tosylate Type G, 18-methoxycoronaridine]
form change after heating (XRPD) [1, 4]: no form change
form change after heating (XRPD) ([1]; heating to 90° C.): crystallinity of the sample decreased significantly
form change after heating (XRPD/VT-XRPD) ([1]; heating to 100° C.): amorphous was obtained

COCC[C@H]1CC2CN3CCc4c([nH]c5ccccc45)[C@](C(=O)OC)(C2)[C@H]13 [sulfate Type C, 18-methoxycoronaridine]
form conversion, summary statement [2, 5]: converted to sulfate Type A
form change after air drying (XRPD) ([2]; air drying at RT for ~30 min): converted to sulfate Type A

COCC[C@H]1CC2CN3CCc4c([nH]c5ccccc45)[C@](C(=O)OC)(C2)[C@H]13 [mesylate Type B, 18-methoxycoronaridine]
physical stability at ambient conditions ([2]; ambient conditions, time not stated): not found to be physically stable at ambient conditions and easily converted to gels/oils
Speculated form (physical stability) ([2]; the solid turn to gel-like after air drying at RT in a few minutes): Metastable*

COCC[C@H]1CC2CN3CCc4c([nH]c5ccccc45)[C@](C(=O)OC)(C2)[C@H]13 [oxalate Type B, 18-methoxycoronaridine]
Solubility (mg/mL) [3, 6]: S<1.8 mg/mL
Solubility (mg/mL) [3, 7]: S>38.0 mg/mL
Solubility (mg/mL) [3, 8]: S>44.0 mg/mL
Solubility (mg/mL) [3, 9]: S<2.1 mg/mL

COCC[C@H]1CC2CN3CCc4c([nH]c5ccccc45)[C@](C(=O)OC)(C2)[C@H]13 [HCl salt Type N, 18-methoxycoronaridine]
Form after treatment [2]: HCl salt Type A^#
form conversion, summary statement [2, 5]: converted to HCl salt Type A

COCC[C@H]1CC2CN3CCc4c([nH]c5ccccc45)[C@](C(=O)OC)(C2)[C@H]13 [HCl salt Type O, 18-methoxycoronaridine]
Form after treatment [2]: HCl salt Type A^#
form conversion, summary statement [2, 5]: converted to HCl salt Type A

COCC[C@H]1CC2CN3CCc4c([nH]c5ccccc45)[C@](C(=O)OC)(C2)[C@H]13 [HBr salt Type B, 18-methoxycoronaridine]
form conversion, summary statement ([2]; after storage or heating experiments): could convert to HBr salt Type A
Form change on storage ([2]; storage at RT for ~20 days): *: Partially converted to HBr salt Type A after storage at RT for ~20 days.
form change after storage (XRPD) ([2]; storage at RT for ~20 days): partially converted to HBr salt anhydrate Type A

COCC[C@H]1CC2CN3CCc4c([nH]c5ccccc45)[C@](C(=O)OC)(C2)[C@H]13 [sulfate Type A, 18-methoxycoronaridine]
form change after N2 drying (VT-XRPD) [1]: no obvious form change
form change after heating (XRPD/VT-XRPD) ([1]; heating to 120° C.): no obvious form change
Solubility (mg/mL) ([3]; CHCl3, RT, approximate): S<1.9 mg/mL
Solubility (mg/mL) ([3]; DCM, RT, approximate): S<2.1 mg/mL
Solubility (mg/mL) ([3]; EtOAc, RT, approximate): S<2.0 mg/mL
Solubility (mg/mL) ([3]; MeOH, RT, approximate): S>44.0 mg/mL
Solubility (mg/mL) ([3]; THF, RT, approximate): S<1.9 mg/mL
Solubility (mg/mL) ([3]; Toluene, RT, approximate): S<2.2 mg/mL
Solubility (mg/mL) ([3]; n-Heptane, RT, approximate): S<1.8 mg/mL

COCC[C@H]1CC2CN3CCc4c([nH]c5ccccc45)[C@](C(=O)OC)(C2)[C@H]13 [besylate Type C, 18-methoxycoronaridine]
form change after exposure to ambient conditions (XRPD) ([2]; exposure to ambient conditions for ~30 min): converted back to besylate Type A

COCC[C@H]1CC2CN3CCc4c([nH]c5ccccc45)[C@](C(=O)OC)(C2)[C@H]13 [tosylate Type E, 18-methoxycoronaridine]
form change after heating (XRPD) [1, 4]: no form change
form change after heating (XRPD) ([1]; heating to 101° C. and cooling back to RT): a sample with weak crystallinity and similar to tosylate Type B was obtained

COCC[C@H]1CC2CN3CCc4c([nH]c5ccccc45)[C@](C(=O)OC)(C2)[C@H]13 [HBr salt Type A, 18-methoxycoronaridine]
form change after drying or heating (VT-XRPD) ([1]; drying or heating under N2 to higher temperatures and cooling back to RT): no form change
Solubility (mg/mL) ([3]; approximate solubility in ACN at RT): S<2.1 * mg/mL
Solubility (mg/mL) [3, 10]: S<2.1 * mg/mL
Solubility (mg/mL) ([3]; approximate solubility in DCM at RT): S<2.1 * mg/mL
Solubility (mg/mL) [3, 6]: S<2.1 mg/mL
Solubility (mg/mL) [3, 7]: S<2.1 mg/mL
Solubility (mg/mL) [3, 8]: S>42.0 mg/mL
Solubility (mg/mL) [3, 11]: S<2.0 mg/mL
Solubility (mg/mL) [3, 9]: S<2.0 mg/mL

COCC[C@H]1CC2CN3CCc4c([nH]c5ccccc45)[C@](C(=O)OC)(C2)[C@H]13 [tosylate Type F, 18-methoxycoronaridine]
form change after heating (XRPD) ([1]; heating to 90° C.): form change to tosylate Type B

COCC[C@H]1CC2CN3CCc4c([nH]c5ccccc45)[C@](C(=O)OC)(C2)[C@H]13 [besylate Type A, 18-methoxycoronaridine]
form change after heating (XRPD/VT-XRPD) ([1]; heating to 100° C.): a new form was observed and assigned as besylate Type C

COCC[C@H]1CC2CN3CCc4c([nH]c5ccccc45)[C@](C(=O)OC)(C2)[C@H]13 [HCl salt Type H, 18-methoxycoronaridine]
Form change after treatment [1]: Freebase Type A+extra peak*
Form after heating [1]: Freebase Type A+extra peak

COCC[C@H]1CC2CN3CCc4c([nH]c5ccccc45)[C@](C(=O)OC)(C2)[C@H]13 [sulfate Type E, 18-methoxycoronaridine]
form change after heating (XRPD/VT-XRPD) ([1]; heating to 100° C.): no form change

COCC[C@H]1CC2CN3CCc4c([nH]c5ccccc45)[C@](C(=O)OC)(C2)[C@H]13 [besylate Type B, 18-methoxycoronaridine]
form change after N2 drying (VT-XRPD) [1]: no obvious form change
form change after heating (XRPD/VT-XRPD) ([1]; heating to 100° C.): no obvious form change

COCC[C@H]1CC2CN3CCc4c([nH]c5ccccc45)[C@](C(=O)OC)(C2)[C@H]13 [sulfate Type D, 18-methoxycoronaridine]
form change after N2 drying (VT-XRPD) [1]: a new form was observed and assigned as sulfate Type F

COCCC1CC2CN3CCc4c([nH]c5ccccc45)C(C(=O)OC)(C2)C13.O=S(=O)(O)c1ccccc1 (stereo not drawn) [besylate Type B (824511-44-C2)]
Approximate solubility ([3]; 50° C., solvent 2-MeTHF, *: little solids in the vial): S<1.9* mg/mL
Approximate solubility ([3]; 50° C., solvent Toluene): S<1.9 mg/mL
Approximate solubility ([3]; 50° C., solvent n-Heptane): S<2.0 mg/mL
Approximate solubility ([3]; RT, solvent 2-MeTHF): S<1.9 mg/mL
Approximate solubility ([3]; RT, solvent ACN): S>40.0 mg/mL
Approximate solubility ([3]; RT, solvent ACN/H2O (1:2, aw 0.9), *: little solids in the vial): S<1.9* mg/mL
Approximate solubility ([3]; RT, solvent CHCl3): S>40.0 mg/mL
Approximate solubility ([3]; RT, solvent DCM): S>40.0 mg/mL
Approximate solubility ([3]; RT, solvent EtOAc): S<2.0 mg/mL
Approximate solubility ([3]; RT, solvent H2O): S<2.0 mg/mL
Approximate solubility ([3]; RT, solvent IPA/H2O (847:153, aw 0.8)): S>40.0 mg/mL
Approximate solubility ([3]; RT, solvent MeOH): S>44.0 mg/mL
Approximate solubility ([3]; RT, solvent THF/H2O (87:13, aW 0.8)): S>42.0 mg/mL
Approximate solubility ([3]; RT, solvent THF/H2O (981:19, aw 0.2)): S>40.0 mg/mL
Approximate solubility ([3]; RT, solvent n-Heptane): S<2.0 mg/mL

COCC[C@H]1CC2CN3CCc4c([nH]c5ccccc45)[C@](C(=O)OC)(C2)[C@H]13 [tosylate Type B, 18-methoxycoronaridine]
Approximate solubility ([3]; 50° C., 1,4-Dioxane/n-heptane (1:2) v:v): S<1.9 mg/mL
Approximate solubility ([3]; 50° C., IPAc): S<2.2 mg/mL
Approximate solubility ([3]; 50° C., MTBE): S<2.1 mg/mL
Approximate solubility ([3]; 50° C., Toluene): S<1.9 mg/mL
Approximate solubility ([3]; 50° C., n-Heptane): S<2.0 mg/mL
Approximate solubility ([3]; RT, 2-MeTHF): S<2.1 mg/mL
Approximate solubility ([3]; RT, ACN/toluene (4:1) v:v): S>42.0 mg/mL
Approximate solubility ([3]; RT, Acetone/n-heptane (4:1) v:v): S<2.0 mg/mL
Approximate solubility ([3]; RT, CHCl3): S>40.0 mg/mL
Approximate solubility ([3]; RT, CHCl3/toluene (1:4) v:v): S<1.9 mg/mL
Approximate solubility ([3]; RT, EtOAc, little solid in the vial): S<2.1^& mg/mL
Approximate solubility ([3]; RT, EtOH): S>40.0 mg/mL
Approximate solubility ([3]; RT, EtOH/n-hexane (3:1) v:v): S>42.0 mg/mL
Approximate solubility ([3]; RT, H2O): S<2.0 mg/mL
Approximate solubility ([3]; RT, MeOH): S>44.0 mg/mL
Approximate solubility ([3]; RT, THF/H2O (87:13) v:v): S>42.0 mg/mL
Approximate solubility ([3]; RT, n-Heptane): S<2.0 mg/mL

COCC[C@H]1CC2CN3CCc4c([nH]c5ccccc45)[C@](C(=O)OC)(C2)[C@H]13 [HCl salt Type F, 18-methoxycoronaridine]
Form change after treatment [1]: HCl salt Type K*
Form after heating [1]: HCl salt Type K^#

COCC[C@H]1CC2CN3CCc4c([nH]c5ccccc45)[C@](C(=O)OC)(C2)[C@H]13 [mesylate Type A, 18-methoxycoronaridine]
form change after N2 drying (VT-XRPD) [1]: no form change
form change after heating (XRPD/VT-XRPD) ([1]; heating to 100° C.): no obvious form change
Solubility (mg/mL) ([3]; approximate solubility in Acetone at RT): S<2.3 mg/mL
Solubility (mg/mL) [3, 10]: S>42.0* mg/mL
Solubility (mg/mL) [3, 6]: S<2.2 mg/mL
Solubility (mg/mL) [3, 7]: S>42.0* mg/mL
Solubility (mg/mL) [3, 8]: S>40.0 mg/mL
Solubility (mg/mL) [3, 11]: S<2.0 mg/mL
Solubility (mg/mL) [3, 9]: S<2.0 mg/mL
